The test system of test [1] is Staphylococcus aureus UC ® 9213. As to the kind of experiment: in vitro antibacterial activity, Minimum Inhibitory Concentration, Staphylococcus aureus. Conditions: for MIC: Staphylococcus aureus, UC9213, read-out: Minimum Inhibitory Concentration; for Minimum Inhibitory Concentration: in vitro, Staphylococcus aureus UC ® 9213.
Test [2] deals with Streptococcus pyogenes UC ® 152. Briefly: in vitro antibacterial activity, Minimum Inhibitory Concentration, Streptococcus pyogenes. Conditions: for MIC: Streptococcus pyogenes, UC152, read-out: Minimum Inhibitory Concentration; for Minimum Inhibitory Concentration: in vitro, Streptococcus pyogenes UC ® 152.

≈ marks a conversion by molar mass, not a printed value.

For `CC(=O)NCC1CN(c2ccc(-c3ccc(NCCO)c(=O)cc3)cc2)C(=O)O1` (racemic) [Compound 4, (±)-N-[[3-[4-[4-[(2-hydroxyethyl)amino]-5-oxo1,3,6-cycloheptatrien-1-yl]phenyl]-2oxo-5-oxazolidinyl]methyl-acetamide], the values for the MIC in test [1] and in test [2] were 4 µg/mL (≈ 10.1 µM) and 0.5 µg/mL (≈ 1.26 µM), respectively.

Regarding `C#CCNc1cccc(-c2ccc(N3CC(CNC(C)=O)OC3=O)cc2)cc1=O` (racemic) [Compound 29, (±)-N-[[3-[4-[4-(2-pyopynylamino)-3-oxo-1,4,6-cycloheptatrien-1-yl)phenyl]2-oxo-5-oxazolidinyl]methyl-acetamide], the figures for the MIC in test [1] and in test [2] were 2 µg/mL (≈ 5.11 µM) and 0.5 µg/mL (≈ 1.28 µM), respectively.

As for `CC(=O)NCC1CN(c2ccc(-c3ccc(N4CCNCC4)c(=O)cc3)cc2)C(=O)O1` (racemic) [Compound 12, (±)-N-[[3-[4-[4-(1-piperazinyl)-5-oxo-1,3,6-cycloheptatrien-1-yl]phenyl]-2-oxo-5-oxazolidinyl]methyl]-acetamide], the MIC in test [1] is 8 µg/mL (≈ 18.9 µM); in test [2] it was 0.25 µg/mL (≈ 0.592 µM).

Consider `CC(=O)NC[C@H]1CN(c2ccc(-c3ccc(N4CCOCC4)c(=O)cc3)c(F)c2)C(=O)O1` [Compound 36, (S)-N-[[3-[3-fluoro4[(4-morpholino)-5-oxo-1,3,6cycloheptatrien-1-yl]phenyl]-2-oxo-5oxazolidinyl]methyl]-acetamide], for which the values for the MIC in test [1] and in test [2] were 2 µg/mL (≈ 4.53 µM) and 0.5 µg/mL (≈ 1.13 µM), respectively.

In the case of `CC(=O)NCC1CN(c2ccc(-c3ccc(N4CCCC4)c(=O)cc3)cc2)C(=O)O1` (racemic) [Compound 9, (±)-N-[[3-[4-[4-(1-pyrrolidinyl)-5-oxo-1,3,6-cycloheptatrien-1-yl]]phenyl]-2-oxo-5-oxazolidinyl]methyl]-acetamide], the values for the MIC in test [1] and in test [2] were 4 µg/mL (≈ 9.82 µM) and 1 µg/mL (≈ 2.45 µM), respectively.

Consider “(±)-N-[[3-[4-[4-(3-amino-1-yl]phenyl]-2-oxo-5-oxazolidinyl]methyl]-acetamide [Compound 23]”, for which the “Minimum Inhibitory Concentration” value in test [1] stood at 16 µg/mL; in test [2], 0.25 µg/mL.

For the compound `CCOc1ccc(-c2ccc(N3CC(CNC(C)=O)OC3=O)cc2)ccc1=O` (racemic) [Compound 22, (±)-N-[[3-[4-(4-ethoxy-5-oxo-1,3,6-cycloheptatrien-1-yl]phenyl]-2-oxo5-oxazolidinyl]methyl]-acetamide], the MIC in test [1] came out at 4 µg/mL (≈ 10.5 µM); in test [2], 0.5 µg/mL (≈ 1.31 µM).

For `CC(=O)NC[C@H]1CN(c2ccc(-c3ccc(N4CCOCC4)c(=O)cc3)cc2)C(=O)O1` [Compound 25, (S)-N-[[3-[4[4-(4-morpholino)-5-oxo-1,3,6-cycloheptatrien-1-yl]phenyl]-2-oxo-5-oxazolidinyl]methyl]-acetamide], the values for the MIC in test [1] and in test [2] were 2 µg/mL (≈ 4.72 µM) and 0.5 µg/mL (≈ 1.18 µM), respectively.

Turning to `CC(=O)NCC1CN(c2ccc(-c3ccc(OC(C)C)c(=O)cc3)cc2)C(=O)O1` (racemic) [Compound 24, (±)-N[[3-[4-[4-(1-methylethoxy)-5-oxo-1,3,6-cycloheptatrien-1-yl]phenyl]-2-oxo-5-oxazolidinyl]methyl]-acetamide], the figures for the MIC in test [1] and in test [2] were 4 µg/mL (≈ 10.1 µM) and 1 µg/mL (≈ 2.52 µM), respectively.

For `CC(=O)NCC1CN(c2ccc(-c3ccc(N4CCCCC4)c(=O)cc3)cc2)C(=O)O1` (racemic) [Compound 15, (±)-N-[[3-[4-[4-(1-piperidinyl)-5-oxo-1,3,6-cycloheptatrien-1-yl]phenyl]-2-oxo-5-oxazolidinyl]methyl]-acetamide], the MIC in test [1] was 2 µg/mL (≈ 4.74 µM); in test [2] it was 1 µg/mL (≈ 2.37 µM).

For the compound `COc1ccc(-c2ccc(N3C[C@H](CNC(C)=O)OC3=O)cc2F)ccc1=O` [Compound 19], the results for the MIC in test [1] and in test [2] were 1 µg/mL (≈ 2.59 µM) and 0.25 µg/mL (≈ 0.647 µM), respectively.

With `CC(=O)NCC1CN(c2ccc(-c3ccc(N4CCN(C=O)CC4)c(=O)cc3)cc2)C(=O)O1` (racemic) [Compound 7, (±)-N-[[3-[4-[4-(4-formyl-1-piperazinyl)-5-oxo-1,3,6-cycloheptatrien-1-yl]phenyl]-2-oxo-5-oxazolidinyl]methyl]-acetamide], the MIC came to 4 µg/mL (≈ 8.88 µM) in test [1] and 0.5 µg/mL (≈ 1.11 µM) in test [2].

Regarding `COc1ccc(-c2ccc(N3C[C@H](CNC(C)=O)OC3=O)cc2)ccc1=O` [Compound 28, (S)-N-[[3-[4-methoxy-5-oxo-1,3,6-cycloheptatrien-yl)phenyl-2-oxo-5-oxazolidinyl)methyl]-acetamide], in test [1], the MIC was 1 µg/mL (≈ 2.71 µM).

On to `C=CCOc1ccc(-c2ccc(N3CC(CNC(C)=O)OC3=O)cc2)ccc1=O` (racemic) [Compound 33, (±)-N-[[3-[4-[4-(2-propenyloxy)5-oxo-1,3,6-cycloheptatrien-1-yl]phenyl]-2-oxo-5-oxazolidinyl)methyl]-acetamide], for which the MIC in test [1] amounted to 4 µg/mL (≈ 10.1 µM); in test [2] it was 1 µg/mL (≈ 2.54 µM).

As to `COC(=O)CNc1ccc(-c2ccc(N3CC(CNC(C)=O)OC3=O)cc2)ccc1=O` (racemic) [Compound 30, (±)-N-[[3-[4-[-[[(methoxycarbonyl)methyl]amino]-5-oxo-1,3,6cycloheptatrien-1-yl]phenyl]-2-oxo-5-oxazolidinyl]methyl]-acetamide], the “Minimum Inhibitory Concentration” value was found to be 4 µg/mL in test [1] and 1 µg/mL in test [2].

Regarding `CC(=O)NCC1CN(c2ccc(-c3ccc(NC4CC4)c(=O)cc3)cc2)C(=O)O1` (racemic) [Compound 6, (±)-N-[[3-[4-(4-cyclopropylamino-5-oxo-1,3,6-cycloheptatrien-1-yl)phenyl]-2-oxo-5-oxazolidinyl]methyl]-acetamide], the MIC in test [1] stood at 2 µg/mL (≈ 5.08 µM); in test [2], 0.5 µg/mL (≈ 1.27 µM).

For the compound `C#CCNc1ccc(-c2ccc(N3C[C@H](CNC(C)=O)OC3=O)cc2F)ccc1=O` [Compound 34], the results for the “Minimum Inhibitory Concentration” value in test [1] and in test [2] were 1 µg/mL and 0.25 µg/mL, respectively.

For the compound `CC(=O)NCC1CN(c2ccc(-c3ccc(N4CCOCC4)c(=O)cc3)cc2)C(=O)O1` (racemic) [Compound 5, (±)-N-[[3-[4-[4-(4-morpholino)-5-oxo1,3,6-cycloheptatrien-1-yl]phenyl]2oxo5-oxazolidinyl]methyl]-acetamide], the MIC in test [1] was 2 µg/mL (≈ 4.72 µM); in test [2], 0.5 µg/mL (≈ 1.18 µM).

For `COc1cccc(-c2ccc(N3CC(CNC(C)=O)OC3=O)cc2)cc1=O` (racemic) [Compound 20, (±)-N-[[3-[4-[4-methoxy-3-oxo-1,4,6-cycloheptatrien-1-yl)phenyl]-2-oxo-5-oxazolidinyl]methyl]-acetamide], the MIC in test [1] worked out at 4 µg/mL (≈ 10.9 µM); in test [2] it was 0.5 µg/mL (≈ 1.36 µM).

Take `COc1cc(-c2ccc(N3CC(CNC(C)=O)OC3=O)cc2)cccc1=O` (racemic) [Compound 21, (±)-N-[[3-[4-(6-methoxy-5-oxo-1,3,6-cycloheptatrien-1-yl]phenyl]-2-oxo5-oxazolidinyl]methyl]-acetamide]: the MIC was 64 µg/mL (≈ 174 µM) in test [1] and 8 µg/mL (≈ 21.7 µM) in test [2].

As for `COCCOc1ccc(-c2ccc(N3CC(CNC(C)=O)OC3=O)cc2)ccc1=O` (racemic) [Compound 35, (±)-N-[[3-[4-[4-(2-methoxyethoxy)-5-oxo-1,3,6cycloheptatrien1-yl]phenyl)-2-oxo-5-oxazolidinyl]methyl]-acetamide], the MIC in test [1] came to 4 µg/mL (≈ 9.7 µM); in test [2], 1 µg/mL (≈ 2.42 µM).

Regarding `COc1ccc(-c2ccc(N3CC(CNC(C)=O)OC3=O)cc2)ccc1=O` (racemic) [Compound 1, (±)-N[[3-[4-(4-methoxy-5-oxo-,1,3,6-cycloheptatrien-yl)phenyl]-2-oxazolidinyl]methyl-acetamide], the figures for the MIC in test [1] and in test [2] were 2 µg/mL (≈ 5.43 µM) and 0.25 µg/mL (≈ 0.679 µM), respectively.

Regarding `CC(=O)NCC1CN(c2ccc(-c3ccc(N4CCNC(C)C4)c(=O)cc3)cc2)C(=O)O1` (racemic) [Compound 17, (±)-N-[[3-[4-[4-(3-methyl-1-piperazinyl)-5-oxo-1,3,6-cycloheptatrien-1-yl]phenyl]2-oxo-5-oxazolidinyl]methyl]-acetamide], the MIC turned out to be 8 µg/mL (≈ 18.3 µM) in test [1] and 0.25 µg/mL (≈ 0.573 µM) in test [2].

Turning to `CC(=O)NCC1CN(c2ccc(-c3ccc(N4CCC(O)C4)c(=O)cc3)cc2)C(=O)O1` (racemic) [Compound 18, (±)-N-[[3-[4-[4-(3-hydroxy-1-pyrrolidinyl)-5-oxo-1,3,6-cycloheptatrien-1-yl]phenyl]-2-oxo-5oxazolidinyl]methyl]-acetamide], the MIC in test [1] came to 4 µg/mL (≈ 9.45 µM); in test [2], 1 µg/mL (≈ 2.36 µM).

For `CNc1ccc(-c2ccc(N3CC(CNC(C)=O)OC3=O)cc2)ccc1=O` (racemic) [Compound 31, (±)-N-[[3-[4-(4-methylamino--5-oxo1,3,6-cyclopheptatrien1-yl)phenyl]2-oxo-5-oxazolidinyl]methyl]-acetamide], the values for the MIC in test [1] and in test [2] were 2 µg/mL (≈ 5.44 µM) and 0.25 µg/mL (≈ 0.68 µM), respectively.

For the compound `CC(=O)NCC1CN(c2ccc(-c3cccc(N4CCOCC4)c(=O)c3)cc2)C(=O)O1` (racemic) [Compound 27, (±)-N-[]3-[4-4-(4-morpholinyl)-3-oxo-1,4,6-cycloheptatrien-1-yl]phenyl]-2-oxo-5-oxazolidinyl]methyl]-acetamide], the MIC is 4 µg/mL (≈ 9.45 µM) in test [1] and 1 µg/mL (≈ 2.36 µM) in test [2].

Turning to `CC(=O)NCC1CN(c2ccc(-c3ccc(NC4CCCC4)c(=O)cc3)cc2)C(=O)O1` (racemic) [Compound 11, (±)-N-[[3-[4-(4-cyclopentylamino-5-oxo-1,3,6-cycloheptatrien-1-yl)phenyl]-2-oxo-5-oxazolidinyl]methyl]-acetamide], the MIC worked out at 4 µg/mL (≈ 9.49 µM) in test [1] and 1 µg/mL (≈ 2.37 µM) in test [2].

Take `CC(=O)NCC1CN(c2ccc(-c3ccc(N4C[C@@H](C)N[C@@H](C)C4)c(=O)cc3)cc2)C(=O)O1` (mixture of isomers) [Compound 14, (±)-N-[[3-[4-[4-(cis-3,5-dimethyl-1-piperazinyl)-5-oxo-1,3,6-cycloheptatrien-1-yl]phenyl]-2-oxo5-oxazolidinyl]methyl]-acetamide]: the MIC in test [1] was determined as 8 µg/mL (≈ 17.8 µM); in test [2], 0.5 µg/mL (≈ 1.11 µM).

For the compound `C=CCNc1cccc(-c2ccc(N3CC(CNC(C)=O)OC3=O)cc2)cc1=O` (racemic) [Compound 26, (±)-N[[3-[4-[4-(2-propenylamino)-3-oxo1,4,6-cycloheptatrien-1-yl]phenyl-2oxo-5-oxazolidinyl]methyl]-acetamide], the MIC in test [1] turned out to be 2 µg/mL (≈ 5.08 µM); in test [2], 1 µg/mL (≈ 2.54 µM).

For the origin of these results see patent US5523403A, “Tropone-substituted phenyloxazolidinone antibacterial agents” (The Upjohn Company, priority 1995, dated 1996).
